Laboratory results: PubChem BioAssay (NCI)
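Where inhibition never reached the appropriate level, the endpoint shown equals the highest concentration tested. Otherwise, values were interpolated linearly from a five-concentration, 48-hour dose response in 96-well plates. TGI denotes the concentration required for complete inhibition of growth.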

What was measured:
Assay in all cases: growth of human tumour cells (NCI), 48 h
[1] = tested on: 786-0 renal
[2] = tested on: A498 renal
[3] = tested on: A549 NSCLC
[4] = tested on: ACHN renal
[5] = tested on: CAKI-1 renal
[6] = tested on: CCRF-CEM leukemia
[7] = tested on: COLO 205 colon
[8] = tested on: DLD-1 colon
[9] = tested on: DMS 114 small cell lung
[10] = tested on: DMS 273 small cell lung
[11] = tested on: EKVX NSCLC
[12] = tested on: HCC-2998 colon
[13] = tested on: HCT-116 colon
[14] = tested on: HCT-15 colon
[15] = tested on: HL-60(TB) leukemia
[16] = tested on: HOP-18 NSCLC
[17] = tested on: HOP-62 NSCLC
[18] = tested on: HOP-92 NSCLC
[19] = tested on: HT29 colon
[20] = tested on: IGROV1 ovarian
[21] = tested on: K-562 leukemia
[22] = tested on: KM12 colon
[23] = tested on: KM20L2 colon
[24] = tested on: LOX IMVI melanoma
[25] = tested on: LXFL 529 NSCLC
[26] = tested on: M14 melanoma
[27] = tested on: M19-MEL melanoma
[28] = tested on: MALME-3M melanoma
[29] = tested on: MOLT-4 leukemia
[30] = tested on: NCI-H226 lung
[31] = tested on: NCI-H23 lung
[32] = tested on: NCI-H460 lung
[33] = tested on: NCI-H522 lung
[34] = tested on: OVCAR-3 ovarian
[35] = tested on: OVCAR-4 ovarian
[36] = tested on: OVCAR-5 ovarian
[37] = tested on: OVCAR-8 ovarian
[38] = tested on: RPMI-8226 leukemia
[39] = tested on: RXF 393 renal
[40] = tested on: SF-295 CNS
[41] = tested on: SF-539 CNS
[42] = tested on: SK-MEL-2 melanoma
[43] = tested on: SK-MEL-5 melanoma
[44] = tested on: SK-OV-3 ovarian
[45] = tested on: SN12C renal
[46] = tested on: SNB-19 CNS
[47] = tested on: SNB-75 CNS
[48] = tested on: SNB-78 CNS
[49] = tested on: SR leukemia
[50] = tested on: SW-620 colon
[51] = tested on: TK-10 renal
[52] = tested on: U251 CNS
[53] = tested on: UACC-257 melanoma
[54] = tested on: UACC-62 melanoma
[55] = tested on: UO-31 renal
[56] = tested on: XF 498 CNS
[57] = tested on: RXF-631 renal
[58] = tested on: SF-268 CNS
[59] = tested on: SK-MEL-28 melanoma

Measured: TGI

CSc1ccc(OCC2OC2O)cc1 (configuration not stated)
> 76.6 µM: [5]
86.3 µM: [9]
35.6 µM: [43]
> 54.2 µM: [14]
> 81.6 µM: [33]
35.5 µM: [7]
78.7 µM: [56]
> 83.5 µM: [15]
> 75.5 µM: [29]
> 30.7 µM: [50]
> 95.9 µM: [22]
> 90.9 µM: [19]
99.5 µM: [38]
> 31.6 µM: [24]
36.9 µM: [13]
not listed: [57] | [58] | [59]
> 100 µM: all other assays above

C[C@H](NC(=O)n1c2ccccc2c2ccccc21)C(=O)O
not listed: [2] | [26] | [35] | [47] | [48] | [55] | [56]
> 100 µM: all other assays above

COC(=O)C1=Cc2cc(OC)c(OC)cc2[C@H](c2ccc(OC)c(OC)c2)C1C(=O)OC (some centres not stated)
not listed: [8] | [16] | [33] | [42] | [57]
> 100 µM: all other assays above
